The test system of series [1] is HIV-1 IIIB. Put plainly: Anti-HIV activity in MT-2 cells, MTT quantitation of viral CPE. The series is classed as cell-based. The following applies: MT-2 cells, 5 days; read-out: Antiviral Activity EC50 HIV-1 IIIB. How it is done:
(§1) Determination of antiviral activities. Ff-luciferase reporter activity was used to monitor the replication of HCV replicons in Huhluc/neo-ET cells free from G418. Replicon cells were seeded at the density of 5×10^3 cells per well in 96-well plates. The following day, replicon cells were incubated in duplicates with DMSO or serially diluted tetraphenylporphyrin (TPP) analogues at 37″C. 72 hrs after co-incubation, cells were lysed with ice-cold passive lysis reagent after PBS wash, and the luciferase activity was measured with the luciferase assay kit (Promega) and Tecan FARCyte luminometer (GE Healthcare) following the manufacturers' descriptions. The relative light units (RLU) were adjusted as percentage readings of the compound-free controls and the 50% effective concentration (EC50) was determined from dose-effect curve by nonlinear regression analysis using Origin 6.1 (OriginLab Software). TPP analogues were also screened in vitro against HIV-I IIIB and HBV as previously described (26,41). Briefly 1×10^3 MT-2 cells per well were exposed in triplets to 0.1TC1D50/cell (50% of the tissue culture infectious dose) of HIV-1 IIIB and cultured in the presence of compounds. The EC50 values were estimated by MTT-based colorimetric quantitation of viral CPE after 5 days. Anti-HBV activities were evaluated in 2.2.15 cells by means of Southern DNA hybridization.

Series [2] concerns HBV. The series can be described thus: Anti-HBV activity in 2.2.15 cells by Southern DNA hybridization. The following applies: read-out: Antiviral Activity EC50 HBV. The series is classed as cell-based. How it is done: as §1
The test system of series [3] is HCV genotype 2a (JFH-1) replicon. Put plainly: HCV RNA quantification by qRT-PCR in YSGR-JFH cells. The series is classed as cell-based, Hepatitis C virus. How it is done: Cells. HCV genotype 1b (Con 1 isolate) subgenomic replicon cell line with luciferase reporter (Huh-luc/neo-ET) was kindly provided by Ralf Bartenschlager from the University of Heidelberg (37). Huh-luc/neo-ET cells were cultured in Dulbecco's modified Eagle medium (DMEM , supplemented with 10% fetal bovine serum (FBS), 1 mM nonessential amino acids, and 250 μg/ml of G418 (Invitrogen). Genotype 2a (JFH-I isolate) subgenomic replicon cells YSGR-JFH were cultured in DMEM containing 10 To fetal calf serum, 1 mM nonessential amino acids and 400 μg/ml G418 (31). An additional genotype 1b (Conl) replicon cell line (4291BBix) was cultured in similar media but with 3 μg/ml blasticidin (22).
(§2) Activity of compound 6 against genotype 2a (JFH-I) replicons. In parallel to Huh-luc/neo-ET cells, 1×10^5 YSGR-JFH cells per well were incubated with DMSO control, compound 6, or recombinant human IFNα-2a (Pestka Biomedical Laboratories) in 6-well plates. Cells were harvested after 72 hrs of co-incubation and HCV RNAs were quantitated by qRT-PCR and normalized as described above.
Background: Quantitative PCR measures a nucleic acid by following its amplification.

For series [4], the system named is HCV genotype 1b (Con1) replicon RNA. The series can be described thus: HCV RNA quantification by qRT-PCR in Huh-luc/neo-ET cells. Particulars: for EC50: qRT-PCR, estimated. Format: cell-based, Hepatitis C virus. How it is done: Quantification of HCV RNA and NS5A protein. Huhluc/neo-ET cells were seeded at the density of 1×10^5 cells per well in 6-well plate and treated with either DMSO control or up to 250 nM of compound 6. Cells were harvested after 24, 48, or 72 hrs of incubation and subjected to luciferase activity assay, RNA quantification and immunoblotting. Results were averaged from three independent repeats. Luciferase activity assay was done in triplets per experiment as aforementioned and RLU reading was normalized against the total protein level per sample determined from Bradford assay. Total RNA was isolated using RNeasy Mini Kit (QIAGEN) and the RNA concentrations were measured by spectrophotometry (GE Healthcare) followed by dilution into 50 ng/μL. Replicon RNA was quantitated in triplicates by amplifying the HCV 5′UTR using one-step real-time reverse transcriptase polymerase chain reactions (qRT-PCR). Each 20 μL replicate contained 100 ng of total RNA, 100 nM probe (6FAM-5′-[…]-3′-MGBNFQ, Applied Biosystems) and 200 nM forward and reverse primers (5′-[…]-3′, and 5′-[…]-3′ respectively, Yale University W.M. Keck Facility) (21), together with iScript reverse transcriptase and reaction mix for one-step RT-PCR (Bio-Rad Laboratories). Reactions were run in the iCycler iQ RealTime thermocycler detection system (Bio-Rad Laboratories) as follows: 10 min at 50° C., 5 min at 95° C., followed by 42 cycles at 95° C. for 15 sec and 60° C. for […]. Results were normalized against the β-actin mRNA levels in each sample (20).
as §2

In series [5] the test system is MT-2 cells. Put plainly: Cytotoxicity in uninfected MT-2 cells. The series is classed as cell-based. Particulars: uninfected MT-2 cells, 5 days; read-out: Cytotoxicity CC50 MT-2. Here is the method: Determination of cytotoxicity and mitochondrial DNA toxicity. Exponentially growing Huh-7 cells were seeded at a density of 1×10^4 cells per well in a 24-well plate and incubated with TPP analogues for 3 days. Cells were fixed and stained with 0.5% methylene blue in 50% ethanol followed by extensive washing. After the plates were air dried, cells were solubilized in 1% sarkosyl and cell growth was determined from the extent of absorption by spectrophotometric measurements at 595 nm (Biotek Instruments). For compounds whose dark color interfered with 595-nm reading, cytotoxicity was measured by the CellTiter-Glo luminesecent cell viability assay following manufacturer's description (Promega). Cytotoxicity in MT-2 cells was determined from colorimetric quantitation of uninfected MT-2 cells after 5 days of coincubation.

Read-outs that look alike come from different tables or passages of the source.

What is called EC50 is the concentration at which the effect is half-maximal. Usually CC50 stands for the concentration that lowers cell viability or growth by half. Consider `O=C(O)c1cc(C(=O)O)cc(-c2ccc(-c3c4nc(c(-c5ccc(-c6cc(C(=O)O)cc(C(=O)O)c6)cc5)c5ccc([nH]5)c(-c5ccc(-c6cc(C(=O)O)cc(C(=O)O)c6)cc5)c5nc(c(-c6ccc(-c7cc(C(=O)O)cc(C(=O)O)c7)cc6)c6ccc3[nH]6)C=C5)C=C4)cc2)c1` [Compound 6, Meso-teftakis-(3,5-dicarboxy-4,4′-biphenyl)porphyrin], for which the EC50 in series [1] is 3670 ± 1220 nM; in series [2] it was more than 20000 nM; in series [3] (genotype 2a, 72 hrs, HCV RNA by qRT-PCR, read-out: antiviral EC50 against YSGR-JFH replicon cells) it was 1380 ± 148 nM; in series [4] (24 hrs, read-out: 24-hr EC50, HCV RNA level), 67.8 nM; in series [4] (48 hrs, read-out: 48-hr EC50, HCV RNA level), 36.2 nM. The “EC50 in YSGR-JFH (genotype 2a) relative to EC50 in Huh-luc/neo-ET (genotype 1b)” value in series [3] (72 hrs) is “over 57 fold”. The “less effective against genotype 2a (JFH-1) than against genotype 1b (Conl) replicons” value in series [3] (anti-HCV EC50) came to 57 times. Also, the “improvement of 72-hr EC50 compared with 24-hr incubation, HCV RNA” value in series [4] (72 hr vs 24 hr) is “over 2 fold”. Also, the CC50 in series [5] was determined as 18000 ± 4240 nM.

Source of the values: patent publication US20110064694A1, “ANTI-HEPATITIS C ACTIVITY OF MESO-TETRAKIS-PORPHYRIN ANALOGUES” (YALE UNIVERSITY, priority 2009, published 2011).
